Test results reported in ChEMBL document CHEMBL5375957, “Optimization of Novel α7 Nicotinic Acetylcholine Receptor Positive Allosteric Modulators and the Discovery of a Preclinical Development Candidate Molecule (RGH-560)” (J Med Chem, 2023).
≈ marks a conversion by molar mass, not a printed value. Calls of active or inactive are those of the source. The rule behind the calls is not given here.

Legend:
[1] = Kinetic solubility of compound at pH 7.4 incubated for 2 hrs by UV-HPLC analysis; format: physicochemical; details: buffer, read-out: Kinetic_solubility
[2] = Metabolic stability in human liver microsome assessed as intrinsic clearance measured per mg of protein incubated for 40 mins; format: ADME; details: liver microsomes, read-out: CLH
[3] = Metabolic stability in Wistar rat liver microsome assessed as intrinsic clearance measured per mg of protein incubated for 40 mins; format: ADME; details: liver microsomes, read-out: CLH
[4] = Metabolic stability in NMRI mouse liver microsome assessed as intrinsic clearance measured per mg of protein incubated for 40 mins; format: ADME; details: liver microsomes, read-out: CLH
[5] = system: Mus musculus; assay: Cognitive activity in scopolamine induced amnesia NMRI mouse model assessed as recognition index at 1 to 10 mg/kg, ip pretreated with compound for 30 mins followed by scopolamine induction by Y maze test; format: functional, organism-based; details: dose 1-10 mg/kg
[6] = Drug concentration in NMRI mouse brain at 1 mg/kg, ip measured after 1 hr by HPLC-MS/MS analysis; format: ADME, organism-based; details: read-out: Ct
[7] = Drug concentration in NMRI mouse brain at 3 mg/kg, ip measured after 1 hr by HPLC-MS/MS analysis; format: ADME, organism-based; details: read-out: Ct
[8] = Drug concentration in NMRI mouse brain at 10 mg/kg, ip measured after 1 hr by HPLC-MS/MS analysis; format: ADME, organism-based; details: read-out: Ct
[9] = Drug concentration in NMRI mouse plasma at 1 mg/kg, ip measured after 1 hr by HPLC-MS/MS analysis; format: ADME, organism-based
[10] = Drug concentration in NMRI mouse plasma at 3 mg/kg, ip measured after 1 hr by HPLC-MS/MS analysis; format: ADME, organism-based
[11] = Drug concentration in NMRI mouse plasma at 10 mg/kg, ip measured after 1 hr by HPLC-MS/MS analysis; format: ADME, organism-based
[12] = Ratio of drug concentration in brain to plasma in NMRI mouse plasma at 1 mg/kg, ip measured after 1 hr by HPLC-MS/MS analysis; format: ADME, organism-based
[13] = Ratio of drug concentration in brain to plasma in NMRI mouse plasma at 3 mg/kg, ip measured after 1 hr by HPLC-MS/MS analysis; format: ADME, organism-based
[14] = Ratio of drug concentration in brain to plasma in NMRI mouse plasma at 10 mg/kg, ip measured after 1 hr by HPLC-MS/MS analysis; format: ADME, organism-based
[15] = system: Mus musculus; assay: Cognitive activity in scopolamine induced amnesia ip dosed NMRI mouse model assessed as minimum effective dose pretreated with compound for 30 mins followed by scopolamine induction; format: functional; details: 0.5 h
[16] = Metabolic stability in human Hepatocyte assessed as intrinsic clearance measured per million cells incubated for 40 mins; format: ADME, cell-based; details: hepatocytes, read-out: CLH
[17] = Toxicity in NMRI mouse assessed as effect on locomotor activity at 30 mg/kg, ip; format: organism-based; details: in vivo
[18] = molecular target: Neuronal acetylcholine receptor subunit alpha-7 (Homo sapiens, UniProt P36544); assay: Positive allosteric modulator activity at human alpha7 nAChR expressed in Flp-In HEK293 cells assessed as increase in calcium influx incubated for 10 mins by fluorescence based analysis; format: cell-based
[19] = Efflux ratio of apparent permeability in human Caco-2 cells at 10 uM; format: ADME, cell-based
[20] = Apparent permeability in human Caco2 cells at 10 uM; format: ADME, cell-based; details: Caco-2
[21] = molecular target: Voltage-gated inwardly rectifying potassium channel KCNH2 (Homo sapiens, UniProt Q12809); assay: Inhibition of hERG transfected in CHO cells at -80 mV holding potential by automated patch clamp assay; format: toxicity, cell-based
Voltage-gated inwardly rectifying potassium channel KCNH2, sequence (Q12809 whole entry): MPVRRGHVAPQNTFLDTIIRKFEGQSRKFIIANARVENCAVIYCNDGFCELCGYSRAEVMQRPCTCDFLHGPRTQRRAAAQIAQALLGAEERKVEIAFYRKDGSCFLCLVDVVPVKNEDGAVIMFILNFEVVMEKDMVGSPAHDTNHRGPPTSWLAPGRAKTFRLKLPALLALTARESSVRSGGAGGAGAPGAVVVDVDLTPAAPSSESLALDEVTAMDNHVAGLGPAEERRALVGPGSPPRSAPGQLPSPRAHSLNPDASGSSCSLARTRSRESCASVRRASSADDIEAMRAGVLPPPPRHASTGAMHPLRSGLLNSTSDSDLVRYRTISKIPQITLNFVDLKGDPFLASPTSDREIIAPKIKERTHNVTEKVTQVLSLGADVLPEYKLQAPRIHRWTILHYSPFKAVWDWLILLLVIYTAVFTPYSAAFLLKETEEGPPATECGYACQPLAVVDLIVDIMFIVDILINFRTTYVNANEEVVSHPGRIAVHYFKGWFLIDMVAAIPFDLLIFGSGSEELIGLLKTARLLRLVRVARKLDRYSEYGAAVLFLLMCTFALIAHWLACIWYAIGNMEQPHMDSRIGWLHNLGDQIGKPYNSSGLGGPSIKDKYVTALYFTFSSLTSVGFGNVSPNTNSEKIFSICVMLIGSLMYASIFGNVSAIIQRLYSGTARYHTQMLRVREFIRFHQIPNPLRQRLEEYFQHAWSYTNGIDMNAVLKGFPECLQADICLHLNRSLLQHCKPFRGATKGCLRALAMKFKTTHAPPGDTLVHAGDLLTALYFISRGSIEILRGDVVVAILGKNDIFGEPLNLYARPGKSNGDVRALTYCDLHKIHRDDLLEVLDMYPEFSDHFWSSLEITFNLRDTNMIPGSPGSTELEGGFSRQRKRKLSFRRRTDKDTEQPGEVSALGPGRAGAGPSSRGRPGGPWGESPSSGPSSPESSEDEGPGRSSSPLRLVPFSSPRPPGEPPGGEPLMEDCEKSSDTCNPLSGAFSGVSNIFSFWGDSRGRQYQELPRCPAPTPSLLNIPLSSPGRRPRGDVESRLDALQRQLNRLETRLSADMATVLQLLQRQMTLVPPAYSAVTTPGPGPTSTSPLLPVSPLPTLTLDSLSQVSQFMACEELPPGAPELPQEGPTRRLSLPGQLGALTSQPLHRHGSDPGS

Neuronal acetylcholine receptor subunit alpha-7, sequence (P36544 whole entry): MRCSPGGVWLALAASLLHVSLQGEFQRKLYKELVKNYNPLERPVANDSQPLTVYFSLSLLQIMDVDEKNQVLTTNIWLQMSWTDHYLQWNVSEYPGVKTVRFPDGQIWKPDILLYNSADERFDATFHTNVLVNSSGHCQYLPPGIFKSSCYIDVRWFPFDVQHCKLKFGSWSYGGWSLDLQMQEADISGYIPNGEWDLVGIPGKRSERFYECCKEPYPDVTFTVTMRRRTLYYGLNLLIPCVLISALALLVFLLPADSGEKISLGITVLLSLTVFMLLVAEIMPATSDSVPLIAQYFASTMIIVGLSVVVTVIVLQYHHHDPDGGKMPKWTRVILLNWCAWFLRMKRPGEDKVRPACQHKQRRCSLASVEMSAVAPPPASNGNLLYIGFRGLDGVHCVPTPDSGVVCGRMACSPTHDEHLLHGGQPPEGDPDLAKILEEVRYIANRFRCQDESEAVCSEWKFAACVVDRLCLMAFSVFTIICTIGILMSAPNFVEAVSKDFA

| SMILES | solubility kinetic at 2 h [1] [µM] | microsomal CLint [2] [µL/min/mg] | microsomal CLint [3] [µL/min/mg] | microsomal CLint [4] [µL/min/mg] | Activity [5] | concentration at 1 h [6] [ng/g] | concentration at 1 h [7] [ng/g] | concentration at 1 h [8] [ng/g] | concentration at 1 h [9] [ng/mL] | concentration at 1 h [10] [ng/mL] | concentration at 1 h [11] [ng/mL] | Kp at 1 h [12] | Kp at 1 h [13] | Kp at 1 h [14] | MED [15] [mg/kg] | EC50 [18] [nM] | other results |
| --- | --- | --- | --- | --- | --- | --- | --- | --- | --- | --- | --- | --- | --- | --- | --- | --- | --- |
| Cn1ccc2cc(CNC(=O)N3CC4(CC(=O)c5ccc(F)cc5O4)C3)ccc21 | 46 (≈ 18.1 µg/mL) | 13 | 30 | 49 | Active | 29 | 78.5 | 248 | 107 | 262 | 2050 | 0.27 | 0.3 | 0.31 | 10 | – | hepatocyte CLint [16]: 10.3 µL/min/1e6 cells; Activity [17]: Non-Toxic |
| Cn1ccc2cc(CNC(=O)N3CC(COc4ccc(C(F)(F)F)cc4)C3)cnc21 | 2.5 (≈ 1.05 µg/mL) | 17 | 77 | 123 | Active | 46.8 | 174 | 438 | 179 | 689 | 2090 | 0.26 | 0.25 | 0.22 | – | 200 | – |
| O=C(NCc1ccc2[nH]ccc2c1)N1CC(COc2ccc(C(F)(F)F)c(F)c2)C1 | 14.2 (≈ 5.98 µg/mL) | 39 | 44 | 36 | Active | 201 | 678 | 2810 | 167 | 610 | 4230 | 1.2 | 1.12 | 0.66 | 3 | 85 | efflux ratio at 10 µM [19]: 1.3; Papp at 10 µM [20]: 63 ×10⁻⁶ cm/s; IC50 [21]: 10000 nM |
